# Measured values taken from PMC8739347 (Tropical Medicine and Health, 2022).
# Experiments:
# Test in all cases: Antiviral activity assay in Vero E6 cells, qRT-PCR of supernatant
# Format in all cases: cell-based
# [1] = system: SARS-CoV-2 Alpha variant (hCoV-19/Japan/QK002/2020); details: Severe acute respiratory syndrome coronavirus 2, Vero C1008, compound concentration (for 5-ALA/SFC the 5-ALA concentration, ratio 4:1)
# [2] = system: SARS-CoV-2 Beta variant (hCoV-19/Japan/TY8-612/2020); details: Severe acute respiratory syndrome coronavirus 2, Vero C1008, compound concentration (for 5-ALA/SFC the 5-ALA concentration, ratio 4:1)
# [3] = system: SARS-CoV-2 Gamma variant (hCoV-19/Japan/TY7-501/2020); details: for IC50: Severe acute respiratory syndrome coronavirus 2, Vero C1008, Gamma, compound concentration (for 5-ALA/SFC the 5-ALA concentration, ratio 4:1)
# [4] = system: SARS-CoV-2 Delta variant (hCoV-19/Japan/TY11-330-P1//2021); details: for IC50: Severe acute respiratory syndrome coronavirus 2, Vero C1008, Delta, compound concentration (for 5-ALA/SFC the 5-ALA concentration, ratio 4:1)
compound,measurement,setting,value
"NCC(=O)CCC(=O)O [5-ALA, 5-aminolevulinic acid]",IC50,[1],104 µM
same,IC50,[2],1590 µM
same,viral inhibition,[3],no viral inhibition
same,IC50,[3],> 2000 µM
same,viral inhibition,[4],little viral inhibition
same,IC50,[4],> 2000 µM
"CCC(CC)COC(=O)[C@H](C)N[P@](=O)(OC[C@H]1O[C@@](C#N)(c2ccc3c(N)ncnn23)[C@H](O)[C@@H]1O)Oc1ccccc1 [remdesivir, Remdesivir]",IC50,[1],0.1 to 1 µM
same,IC50,[2],0.1 to 1 µM
same,IC50,[3],0.1 to 1 µM
same,IC50,[4],0.1 to 1 µM
